The target in assay [1] is T1, B1R receptor of the rat (CHO K1 cells stably transfected with the B1R gene of the rat) (Rattus norvegicus, UniProt P97583).
T1 construct: expressed in transfected cells; host or cells: CHO K1 cells (Chinese hamster ovary), stably transfected
T1 sequence (P97583 1-337): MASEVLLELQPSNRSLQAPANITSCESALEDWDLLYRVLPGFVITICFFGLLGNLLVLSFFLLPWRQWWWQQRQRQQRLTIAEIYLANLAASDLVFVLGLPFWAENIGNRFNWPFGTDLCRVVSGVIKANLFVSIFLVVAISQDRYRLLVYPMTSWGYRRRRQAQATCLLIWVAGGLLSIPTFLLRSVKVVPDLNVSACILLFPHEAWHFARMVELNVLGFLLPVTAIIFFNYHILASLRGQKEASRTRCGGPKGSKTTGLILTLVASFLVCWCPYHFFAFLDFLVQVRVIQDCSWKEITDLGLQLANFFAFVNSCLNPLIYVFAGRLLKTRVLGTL
Briefly: Functional study on the bradykinin receptor 1 (B1R), Ca2+ fluorescence (Fluo-4) FLIPR/Novostar assay, rB1R cells. The format is cell-based. The note with it: CHO-K1, 10 μM. In short, it runs like this: (§1)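 Stably transfected CHO K1 cells carrying human or rat B1R were Fluo-4 loaded and Ca2+ fluorescence read by FLIPR or Novostar. Compounds were added first at 10 μM for % activation, then the EC80 agonist was applied after 6-20 min (human: Lys-Des-Arg9-bradykinin; rat: Des-Arg9-bradykinin). % inhibition is relative to maximum achievable inhibition, and IC50 comes from concentration series.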

Assay [2] addresses T2, human B1R receptor (CHO K1 cells stably transfected with the human B1R gene) (Homo sapiens, UniProt P46663).
T2 construct: expressed in transfected cells; host or cells: CHO K1 cells (Chinese hamster ovary), stably transfected
T2 sequence (P46663 1-353): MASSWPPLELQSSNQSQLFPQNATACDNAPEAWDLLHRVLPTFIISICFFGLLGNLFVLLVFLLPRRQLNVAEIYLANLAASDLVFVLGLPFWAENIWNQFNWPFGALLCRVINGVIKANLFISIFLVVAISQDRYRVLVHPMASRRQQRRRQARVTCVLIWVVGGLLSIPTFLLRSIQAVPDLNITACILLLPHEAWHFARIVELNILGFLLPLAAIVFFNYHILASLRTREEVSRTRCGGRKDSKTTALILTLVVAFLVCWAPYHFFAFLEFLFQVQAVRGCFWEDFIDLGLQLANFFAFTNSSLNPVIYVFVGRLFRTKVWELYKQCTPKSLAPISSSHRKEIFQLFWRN
Kind of assay: Functional study on the bradykinin receptor 1 (B1R), Ca2+ fluorescence (Fluo-4) FLIPR/Novostar assay, hB1R cells. The class given is cell-based. Put shortly: as §1

Setting [3] is: read-out: % inhibition (rat B1R) at 10 μM.
[4] abbreviates: CHO-K1, read-out: % inhibition (human B1R) at 10 μM.

This is an account of results in patent US8680159B2, “Bradykinin 1 receptor modulating compounds” (Gruenenthal GmbH, priority 2010, dated 2014).

Like-named read-outs stand apart in the source and are kept apart here.

Take `CN(C(=O)c1ccc2c(c1)[C@H](NC(=O)c1ccccc1Cl)CC2)C1CCN(c2ccncc2C(F)(F)F)CC1` [Example H-183, (3R)-3-[(2-Chloro-benzoyl)amino]-N-methyl-N-[1-[3-(trifluoromethyl)-pyridin-4-yl]-piperidin-4-yl]-2,3-dihydro-1H-indene-5-carboxylic acid amide]: the values for the inhibition at 10 µM in assay [1] (setting [3]) and in assay [2] (setting [4]) were 101% and 93%, respectively.

Consider `CN(C(=O)c1ccc2c(c1)[C@H](NC(=O)c1ccccc1Cl)CC2)C1CCN(c2ccncn2)CC1` [Example H-147, (3R)-3-[(2-Chloro-benzoyl)amino]-N-methyl-N-(1-pyrimidin-4-yl-piperidin-4-yl)-2,3-dihydro-1H-indene-5-carboxylic acid amide], for which the inhibition at 10 µM in assay [1] (setting [3]) came to 107%; in assay [2] (setting [4]) it was 99%.

On to `CN(C(=O)c1cc(F)c2c(c1)[C@H](NC(=O)c1ccccc1Cl)CCO2)C1CCN(c2ccncc2)CC1` [Example H-80, (4R)-4-[(2-Chloro-benzoyl)amino]-8-fluoro-N-methyl-N-(1-pyridin-4-yl-piperidin-4-yl)-3,4-dihydro-2H-chromene-6-carboxylic acid amide], for which the inhibition at 10 µM is 110% in assay [1] (setting [3]) and 100% in assay [2] (setting [4]).

As to `CN(C(=O)c1ccc2c(c1)[C@H](NC(=O)c1cncc3ccccc13)CC2)C1CCN(c2ccncc2)CC1` [Example H-83, N-[(1R)-6-[Methyl-(1-pyridin-4-yl-piperidin-4-yl)-carbamoyl]-2,3-dihydro-1H-inden-1-yl]-isoquinoline-4-carboxylic acid amide], the results for the inhibition at 10 µM in assay [1] (setting [3]) and in assay [2] (setting [4]) were 111% and 100%, respectively.

As to `CN(C(=O)c1ccc2c(c1)OCC[C@H]2NC(=O)c1ccccc1Cl)C1CCN(c2ccncc2)CC1` [Example H-44, (4R)-4-[(2-Chloro-benzoyl)amino]-N-methyl-N-(1-pyridin-4-yl-piperidin-4-yl)-3,4-dihydro-2H-chromene-7-carboxylic acid amide], the inhibition at 10 µM in assay [1] (setting [3]) and in assay [2] (setting [4]) was 94% each time.

In the case of `CN(C(=O)c1ccc2c(c1)[C@H](NC(=O)c1cccc(C(F)(F)F)c1Cl)CC2)C1CCN(c2ccncc2)CC1` [Example H-24, (3R)-3-[[2-Chloro-3-(trifluoromethyl)-benzoyl]amino]-N-methyl-N-(1-pyridin-4-yl-piperidin-4-yl)-2,3-dihydro-1H-indene-5-carboxylic acid amide], the inhibition at 10 µM came to 98% in assay [1] (setting [3]) and 100% in assay [2] (setting [4]).

On to `CN(C(=O)c1ccc2c(c1)[C@H](NC(=O)[C@H]1CCCc3ccccc31)CC2)C1CCN(c2ccncc2)CC1` [Example H-69, (1S)-N-[(1R)-6-[Methyl-(1-pyridin-4-yl-piperidin-4-yl)-carbamoyl]-2,3-dihydro-1H-inden-1-yl]-1,2,3,4-tetrahydro-naphthalene-1-carboxylic acid amide], for which the inhibition at 10 µM in assay [1] (setting [3]) came out at 99%; in assay [2] (setting [4]), 100%.

With `CN(C(=O)c1ccc2c(c1)[C@H](NC(=O)c1ccccc1Cl)CC2)C1CCN(c2ccnc(C#N)c2)CC1` [Example H-123, (3R)-3-[(2-Chloro-benzoyl)amino]-N-[1-(2-cyano-pyridin-4-yl)-piperidin-4-yl]-N-methyl-2,3-dihydro-1H-indene-5-carboxylic acid amide], the inhibition at 10 µM in assay [1] (setting [3]) was 107%; in assay [2] (setting [4]), 97%.

For the compound `CN(C(=O)c1ccc2c(c1)CCC2NC(=O)c1cccc(Cl)c1Cl)C1CCN(c2ccncc2)CC1` (centres unmarked) [CC_H-67, 1-[(2,3-Dichloro-benzoyl)amino]-N-methyl-N-(1-pyridin-4-yl-piperidin-4-yl)-2,3-dihydro-1H-indene-5-carboxylic acid amide], the inhibition at 10 µM in assay [1] (read-out: % Inhibition (r-B1R) at 10 μM) was 98%; in assay [2] (CHO-K1, read-out: % Inhibition (h-B1R) at 10 μM), 100%.

For the compound `O=C(NCC1CCCN(c2ccncc2)C1)c1ccc2c(c1)[C@H](NC(=O)c1ccccc1Cl)CC2` (stereo partly drawn) [Example H-10, (3R)-3-[(2-Chloro-benzoyl)amino]-N-[(1-pyridin-4-yl-piperidin-3-yl)-methyl]-2,3-dihydro-1H-indene-5-carboxylic acid amide], the inhibition at 10 µM in assay [1] (setting [3]) stood at 97%; in assay [2] (setting [4]), 18%.
